The conditions of data set [1]: mouse, in vivo.
Procedure: (§1) Each of the three compounds was dissolved in DMSO (20 mg/mL), mixed with 30% hydroxypropyl-β-cyclodextrin at a 1:9 ratio, and administered to the CD-1 mice intraperitoneally (ip) or orally (po) through a gavage. After compound administration, blood samples (3 mice per compound) were collected at nine time points, i.e., at 5 minutes, 0.25 hours, 0.5 hours, 1 hour, 2 hours, 4 hours, 8 hours, 12 hours, and 24 hours, through the tail vein. Plasma was isolated from these blood samples and the compound plasma concentrations were determined by HPLC-MS/MS. Pharmacokinetic parameters were calculated using the program PKSolver, an add-in program for use in analyzing pharmacokinetic and pharmacodynamics data analysis, as described in Zhang et al., Computer Methods and Programs in Biomedicine, 99: 306-314 (2010).
The nature of a further data set: in vivo. Particulars: CD-1, mouse.
For data set [2], the system named is SRC-1, SRC-2 or SRC-3 fused with the DNA binding domain of Gal4. Description: Gal4 luciferase reporter (pG5-luc / pBIND-SRC) in HeLa cells. Type of data set: cell-based. Particulars: pG5-luc + pBIND-SRC-1, -2 or -3. The text has this:
The compounds described herein stimulate SRC intrinsic transcriptional activity. HeLa cells transfected with a Gal4 responsive luciferase reporter (pG5-luc) and a construct encoding SRC-1, SRC-2 or SRC-3 fused with the DNA binding domain of Gal4 (pBIND-SRC-1, pBIND-SRC-2 or pBIND-SRC-3) were exposed to treatments with compounds as described herein, including MCB-613, Compound 10-1, and Compound 10-2.

Data set [3] concerns mice after myocardial infarction. Description: Progressive maximal exercise test, indirect calorimetry (VO2, VCO2). Type of data set: in vivo. The settings on record: after myocardial infarction. How it is done:
RER, VO2 and VCO2 measurements. Respiratory exchange ratio (RER), oxygen consumption (VO^2) and carbon dioxide expiration (VCO2) were measured by indirect calorimetry using a progressive maximal exercise test until mice reached exhaustion.
RER, VO2 and VCO2 measurements. RER, VO2 and VCO2 were measured by indirect calorimetry using a progressive maximal exercise test until mice reached exhaustion.

The test system is the same in data set [4]. Kind of data set: Myocardial infarction model, permanent LAD ligation (echocardiography, histology, immunostaining, PET, EM). The data set is classed as in vivo, ICR (CD1) mice. The settings on record: six weeks post-MI, picrosirius red. Here is the method:
Model of heart failure in adult mice. To induce myocardial infarction (MI) in 8- to 10-week-old mice, the left anterior descending (LAD) artery was permanently ligated. Briefly, mice were anesthetized with 2% isoflurane and then intubated. The heart was exposed by performing a thoracotomy through the fourth or fifth intercostal space and an 8-0 nylon suture was tied around the LAD artery. 10 uls of Adenoviral SRC-3 (Ad-SRC-3) or adenoviral GFP (Ad-GFP) at a titre of 9×10^9 pfu/ml was injected into the anterior free wall near left ventricular descending coronary artery. To assess cell cycle entry, the analog 5-ethynyl-2′-deoxyuridine (EdU; 0.2 g/L, Santa Cruz, SC-284628A) was added to the drinking water for the 9 day duration of the experiment. Cell proliferation was measured using Click-iT EdU kit (Invitrogen, C10339). The initial dose of MCB-613 was administered intraperitoneally at 20 mg/kg 2 hours after surgery. Subsequent injections of the same dose were given for 6 additional days, and then repeated doses were given for 3 days at week 9 and week 16. Mice were harvested at indicated time points for analyses.
Echocardiography. Cardiac function was determined by echocardiography (VisualSonics, Vevo 2100, 40 Mhz-550S probe). After alignment in the transverse B-mode with the papillary muscles, cardiac function was measured on M-mode images.
Histological analysis. Whole hearts were fixed with 10% formalin, embedded in paraffin, and sectioned at 7 μm intervals. Each slide had […], which started at the apex and ended at the suture ligation site (approximately 30-50 slides). Sections at the papillary level (slides 20-30) were stained with Picrosirius red to identify areas of fibrosis. Infarct size was determined using a length-based approach.
Immunostaining analysis. Immunohistochemistry and immunofluorescent staining experiments were performed on FFPE (formalin-fixed and paraffin-embedded sections). TUNEL staining to detect apoptotic cells was done using the DeadEnd™ Fluorometric TUNEL System manufacturer's protocol (Promega, GS3250).
Model of heart failure in adult mice. To induce MI in eight- to ten-week-old mice, the left anterior descending (LAD) artery was permanently ligated. Briefly, mice were anesthetized with 2% isoflurane and then intubated. The heart was exposed by performing a thoracotomy through the fourth or fifth intercostal space and an 8-0 nylon suture was tied around the LAD. The initial dose of MCB-613 was administered intraperitoneally at 20 mg/kg, two hours after surgery. Subsequent injection at the same time of the day and same dose were given for six additional days, and then repeated doses were given for three days at week nine and week 16. Mice were harvested at the indicated time points for analyses.
Echocardiography. Cardiac function was determined by echocardiography (VisualSonics, Vevo 2100, 40 Mhz-550S probe). After alignment in the transverse B-mode with the papillary muscles, cardiac function was measured on M-mode images. Animal numbers for cardiac function in FIG. 11A are Day 0 control (17); MCB-613 (15), Day 1 control (10); MCB-613 (12), Day 14 […], Day 56 control (12); MCB-613 (15), Day 70 control (8); MCB-613 (10), Day 80 control (8); MCB-613 (11), Day 133 control (3); and MCB-613 (3).
Histological analysis. Whole hearts were fixed with 10% formalin, embedded in paraffin, and sectioned at 7 μm intervals. Each slide had three (3) to ten (10) sections, which started at the apex and ended at the suture ligation site (approximately 30-50 slides). Sections at the papillary level (slides 20-30) were stained with Picrosirius red to identify areas of fibrosis. Infarct size was determined using a length-based approach. TUNEL staining to detect apoptotic cells was performed using the DeadEnd™ Fluorometric TUNEL System (Promega, GS3250).
Electron Microscopy. […]

Structures are written as SMILES. Where two headings read alike, the source gives them in different places.

Procedure for in vivo: as §1

Consider `COc1cccc(/C=C2\CN(CCC(C)C)C/C(=C\c3cccc(OC)c3)C2=O)c1` [Compound 10-2, (3E,5E)-1-isopentyl-3,5-bis(3-methoxybenzylidene)piperidin-4-one], for which the Cl is recorded as 1.7 (mg)/(ng/mL)/h in data set [1] (ip) and 6.1 (mg)/(ng/mL)/h in data set [1] (po). Moreover, the AUC(0-inf) (usually total exposure, with the tail of the curve extrapolated) came to 482 ng·h/mL in the data set “in vivo” (ip) and 135 ng·h/mL in “in vivo” (po). Further, the AUC(0-t) – broadly, exposure summed from dosing to a finite time, without extrapolation to infinity – in “in vivo” (ip) turned out to be 334 ng·h/mL; in the data set “in vivo” (po), 131 ng·h/mL. Moreover, the results for the Cmax in the data set “in vivo” (ip) and in the data set “in vivo” (po) were 463 ng/mL and 182 ng/mL, respectively. In addition, the time to peak (Tmax) (commonly the time from dosing to the highest level) is 4.8 min in “in vivo” (ip) and 15 min in “in vivo” (po). Moreover, the half-life (in general, how long it takes for the measured level to halve) was 954 min in the data set “in vivo” (ip, Terminal phase t1/2); 15 min in “in vivo” (ip, t1/2); 1630 min in “in vivo” (po, Terminal phase t1/2); 46.8 min in “in vivo” (po, t1/2). The “intrinsic transcriptional activity of SRCs (luciferase)” value in data set [2] was “selectively stimulates the intrinsic transcriptional activity of SRCs”.
As to `COc1ccccc1/C=C1\CN(CCC(C)C)C/C(=C\c2ccccc2OC)C1=O` [Compound 10-1, (3E,5E)-1-isopentyl-3,5-bis(2-methoxybenzylidene)piperidin-4-one], the “cardiovascular fitness (VCO2, VO2, FIG. 9)” value in data set [3] is given as “improves cardiovascular fitness after myocardial infarction”. Besides, the “infarct size vs saline control” value in data set [4] is recorded as “decrease in infarct size”. The Cl in data set [1] (ip) is 0.97 (mg)/(ng/mL)/h; in data set [1] (po), 7.3 (mg)/(ng/mL)/h. Besides, the AUC(0-inf) stood at 851 ng·h/mL in “in vivo” (ip) and 113 ng·h/mL in the data set “in vivo” (po). In addition, the AUC(0-t) in “in vivo” (ip) amounted to 623 ng·h/mL; in the data set “in vivo” (po) it was 98.4 ng·h/mL. The values for the Cmax in “in vivo” (ip) and in “in vivo” (po) were 357 ng/mL and 53.2 ng/mL, respectively. The Tmax in the data set “in vivo” (ip) was 15 min; in the data set “in vivo” (po) it was 30 min. Also, the half-life was 1090 min in the data set “in vivo” (ip, Terminal phase t1/2); 38.4 min in the data set “in vivo” (ip, t1/2); 612 min in the data set “in vivo” (po, Terminal phase t1/2); 72 min in “in vivo” (po, t1/2). In addition, the “intrinsic transcriptional activity of SRCs (luciferase)” value in data set [2] is on record as “selectively stimulates the intrinsic transcriptional activity of SRCs”.

The values above are taken from US12338229B2, “Small molecule stimulators of steroid receptor coactivator-3 and methods of their use as cardioprotective and/or vascular regenerative agents” (BAYLOR COLLEGE OF MEDICINE, priority 2018, dated 2025).
